According to the CheMixHub ionic liquid set:
± gives the uncertainty stated by the source.

Assay: xn = mol fraction of the nth substance listed

O=S(=O)([N-]S(=O)(=O)C(F)(F)F)C(F)(F)F.[Cs+] + O=S(=O)([N-]S(=O)(=O)C(F)(F)F)C(F)(F)F.[Li+]
100 kPa, frequency 1 MHz, x2 = 0.07
Settings	electrical conductivity [S/m]
403.1 K	0.673 ± 0.071
413.1 K	0.898 ± 0.093
423.5 K	1.16 ± 0.12
432.7 K	1.44 ± 0.15
442.1 K	1.77 ± 0.18
452.2 K	2.12 ± 0.22
462.6 K	2.52 ± 0.25
473.6 K	2.94 ± 0.3
482.8 K	3.37 ± 0.34
492 K	3.86 ± 0.39
502.1 K	4.33 ± 0.44
512.5 K	4.85 ± 0.49
523.1 K	5.37 ± 0.54
531.3 K	5.9 ± 0.59
542.9 K	6.41 ± 0.64
551.8 K	7 ± 0.7
560.9 K	7.52 ± 0.75
571.1 K	8.14 ± 0.82

100 kPa, x2 = 0.07
Settings	viscosity [mPa·s]
403.2 K	97 ± 10
413.2 K	69.8 ± 7.4
423.7 K	51.5 ± 5.4
432.9 K	39.2 ± 4.1
442.5 K	27.9 ± 2.9
452.5 K	23 ± 2.4
463 K	18.9 ± 1.9
473.9 K	15.8 ± 1.6
483.1 K	13.1 ± 1.3
492.6 K	11.1 ± 1.1
502.5 K	9.71 ± 0.98
512.8 K	8.54 ± 0.87
523.6 K	7.41 ± 0.75
531.9 K	6.64 ± 0.67
543.5 K	6.03 ± 0.61
552.5 K	5.39 ± 0.55
561.8 K	5.01 ± 0.51

O=S(=O)([N-]S(=O)(=O)C(F)(F)F)C(F)(F)F.[K+] + O=S(=O)([N-]S(=O)(=O)C(F)(F)F)C(F)(F)F.[Li+]
100 kPa, frequency 1 MHz, x2 = 0.43
Settings	electrical conductivity [S/m]
442.3 K	0.359 ± 0.038
452.3 K	0.479 ± 0.05
462.7 K	0.624 ± 0.064
473.6 K	0.794 ± 0.081
483 K	0.99 ± 0.1
492.3 K	1.19 ± 0.12
502.3 K	1.42 ± 0.14
512.6 K	1.66 ± 0.17
523.4 K	1.93 ± 0.2
531.6 K	2.25 ± 0.23
543 K	2.48 ± 0.25
552.2 K	2.77 ± 0.28
561.6 K	3.1 ± 0.31
571.3 K	3.53 ± 0.36

100 kPa, x2 = 0.43
Settings	viscosity [mPa·s]
442.5 K	179 ± 19
452.5 K	127 ± 14
463 K	90 ± 9.6
473.9 K	63.7 ± 6.7
483.1 K	50.6 ± 5.2
492.6 K	39.1 ± 4
502.5 K	31.6 ± 3.2
512.8 K	26.4 ± 2.7
523.6 K	21.8 ± 2.2
531.9 K	18.4 ± 1.9
543.5 K	14.6 ± 1.5
552.5 K	13.6 ± 1.4
561.8 K	12.5 ± 1.3

FC(F)C(F)(F)COC(F)(F)C(F)F + O=S(=O)([N-]S(=O)(=O)C(F)(F)F)C(F)(F)F.[Li+] + O=S1(=O)CCCC1
303.15 K, 101 kPa
Settings	electrical conductivity [S/m]
x2 = 0.1429, x3 = 0.5714	0.073 ± 0.002
x2 = 0.1818, x3 = 0.5455	0.09 ± 0.002
x2 = 0.25, x3 = 0.5	0.09 ± 0.002
x2 = 0.4, x3 = 0.4	0.079 ± 0.002

O=S(=O)([N-]S(=O)(=O)C(F)(F)F)C(F)(F)F.[Li+] + O=S(=O)([O-])C(F)(F)F.[Li+] + O
viscosity [mPa·s], 100 kPa
Settings	x2 = 0, x1 = 0.112	x2 = 0, x1 = 0.1896	x2 = 0, x1 = 0.2333	x2 = 0, x1 = 0.2547	x2 = 0, x1 = 0.2741
298.15 K	5.2 ± 0.4	15.8 ± 1.3	30.7 ± 2.5	42.3 ± 3.4	54.1 ± 4.3
308.15 K	4.3 ± 0.3	11.5 ± 0.9	21.5 ± 1.7	29 ± 2.3	36.1 ± 2.9
318.15 K	3.4 ± 0.3	8.6 ± 0.7	15.8 ± 1.3	20.9 ± 1.7	25.5 ± 2
328.15 K	2.8 ± 0.2	6.6 ± 0.5	12 ± 1	15.6 ± 1.3	18.7 ± 1.5

O=S(=O)([N-]S(=O)(=O)C(F)(F)F)C(F)(F)F.[Li+] + OCCO
Settings	electrical conductivity [S/m]
333 K, 100 kPa, frequency 1 MHz, x1 = 0.5	0.8 ± 0.08

Settings	viscosity [mPa·s]
333 K, 100 kPa, x1 = 0.5	21.68 ± 0.23

CC[N+]1(C)CCCC1.[Br-] + OC[C@H]1O[C@@H]2O[C@H]3[C@H](O)[C@@H](O)[C@@H](O[C@H]4[C@H](O)[C@@H](O)[C@@H](O[C@H]5[C@H](O)[C@@H](O)[C@@H](O[C@H]6[C@H](O)[C@@H](O)[C@@H](O[C@H]7[C@H](O)[C@@H](O)[C@@H](O[C@H]8[C@H](O)[C@@H](O)[C@@H](O[C@H]1[C@H](O)[C@H]2O)O[C@@H]8CO)O[C@@H]7CO)O[C@@H]6CO)O[C@@H]5CO)O[C@@H]4CO)O[C@@H]3CO + O
298.15 K, 100 kPa
Settings	viscosity [mPa·s]
x2 = 1.587e-05, x1 = 0.001261	1.38 ± 0.03
x2 = 1.587e-05, x1 = 0.001531	1.4 ± 0.03
x2 = 1.588e-05, x1 = 0.0009911	1.37 ± 0.03
x2 = 4.77e-05, x1 = 0.001534	1.45 ± 0.03
x2 = 4.771e-05, x1 = 0.001264	1.42 ± 0.03
x2 = 4.772e-05, x1 = 0.0009931	1.39 ± 0.03

CCCCCCCCCC[n+]1ccn(C)c1.[Cl-] + OC[C@H]1O[C@@](CO)(O[C@H]2O[C@H](CO)[C@@H](O)[C@H](O)[C@H]2O)[C@@H](O)[C@@H]1O + O
298.15 K, 101.3 kPa
Settings	electrical conductivity [S/m]
x2 = 0, x1 = 6.46e-06	0.00385 ± 4e-05
x2 = 0, x1 = 9.55e-06	0.00548 ± 6e-05
x2 = 0, x1 = 1.262e-05	0.00708 ± 7e-05
x2 = 0, x1 = 1.582e-05	0.00872 ± 9e-05
x2 = 0, x1 = 1.894e-05	0.0103 ± 0.0001
x2 = 0, x1 = 2.2e-05	0.0118 ± 0.00012
x2 = 0, x1 = 2.507e-05	0.01334 ± 0.00013
x2 = 0, x1 = 2.8e-05	0.0148 ± 0.00015
x2 = 0, x1 = 3.092e-05	0.0162 ± 0.00016
x2 = 0, x1 = 3.384e-05	0.0176 ± 0.00018
x2 = 0.003591, x1 = 7.14e-06	0.00361 ± 4e-05
x2 = 0.003591, x1 = 1.162e-05	0.00554 ± 6e-05
x2 = 0.003591, x1 = 1.987e-05	0.00901 ± 9e-05
x2 = 0.003591, x1 = 2.367e-05	0.0106 ± 0.00011
x2 = 0.003591, x1 = 2.764e-05	0.01214 ± 0.00012
x2 = 0.003591, x1 = 3.131e-05	0.0136 ± 0.00014
x2 = 0.003591, x1 = 3.559e-05	0.01531 ± 0.00015
x2 = 0.003591, x1 = 3.942e-05	0.0168 ± 0.00017
x2 = 0.003591, x1 = 4.357e-05	0.0184 ± 0.00018
x2 = 0.007156, x1 = 4.94e-06	0.00234 ± 2e-05
x2 = 0.007156, x1 = 9.37e-06	0.0041 ± 4e-05
x2 = 0.007156, x1 = 1.394e-05	0.00589 ± 6e-05
x2 = 0.007156, x1 = 1.816e-05	0.00752 ± 8e-05
x2 = 0.007156, x1 = 2.215e-05	0.00905 ± 9e-05
x2 = 0.007156, x1 = 2.62e-05	0.0106 ± 0.00011
x2 = 0.007156, x1 = 3.004e-05	0.01205 ± 0.00012
x2 = 0.007156, x1 = 3.378e-05	0.0135 ± 0.00014
x2 = 0.007156, x1 = 3.734e-05	0.0148 ± 0.00015
x2 = 0.007156, x1 = 4.078e-05	0.01606 ± 0.00016
x2 = 0.0107, x1 = 8.82e-06	0.00336 ± 3e-05
x2 = 0.0107, x1 = 1.279e-05	0.00469 ± 5e-05
x2 = 0.0107, x1 = 1.666e-05	0.00596 ± 6e-05
x2 = 0.0107, x1 = 2.02e-05	0.00712 ± 7e-05
x2 = 0.0107, x1 = 2.387e-05	0.00828 ± 8e-05
x2 = 0.0107, x1 = 2.723e-05	0.00939 ± 9e-05
x2 = 0.0107, x1 = 3.056e-05	0.0105 ± 0.00011
x2 = 0.0107, x1 = 3.344e-05	0.01139 ± 0.00011
x2 = 0.0107, x1 = 3.674e-05	0.0124 ± 0.00013
x2 = 0.0107, x1 = 3.975e-05	0.0134 ± 0.00013
x2 = 0.01421, x1 = 8.46e-06	0.00279 ± 3e-05
x2 = 0.01421, x1 = 1.229e-05	0.00388 ± 4e-05
x2 = 0.01421, x1 = 1.596e-05	0.00491 ± 5e-05
x2 = 0.01421, x1 = 1.986e-05	0.00599 ± 6e-05
x2 = 0.01421, x1 = 2.304e-05	0.00688 ± 7e-05
x2 = 0.01421, x1 = 2.641e-05	0.0078 ± 8e-05
x2 = 0.01421, x1 = 2.985e-05	0.00874 ± 9e-05
x2 = 0.01421, x1 = 3.276e-05	0.00953 ± 0.0001
x2 = 0.01421, x1 = 3.602e-05	0.01042 ± 0.0001
x2 = 0.01421, x1 = 3.892e-05	0.01121 ± 0.00011
x2 = 0.0177, x1 = 1.052e-05	0.00291 ± 3e-05
x2 = 0.0177, x1 = 1.539e-05	0.00407 ± 4e-05
x2 = 0.0177, x1 = 2e-05	0.00515 ± 5e-05
x2 = 0.0177, x1 = 2.419e-05	0.00614 ± 6e-05
x2 = 0.0177, x1 = 2.851e-05	0.00714 ± 7e-05
x2 = 0.0177, x1 = 3.269e-05	0.0081 ± 8e-05
x2 = 0.0177, x1 = 3.635e-05	0.00895 ± 9e-05
x2 = 0.0177, x1 = 4.032e-05	0.00985 ± 0.0001
x2 = 0.0177, x1 = 4.414e-05	0.0107 ± 0.00011

CCn1cc[nH+]c1.O=S(=O)([N-]S(=O)(=O)C(F)(F)F)C(F)(F)F + c1c[nH]cn1
Settings	electrical conductivity [S/m]
303.15 K, 100 kPa, x1 = 0.948	0.427 ± 0.026

N#C[C-](C#N)C#N.OCCC[n+]1ccccc1 + c1ccsc1
viscosity [mPa·s], 101 kPa
Settings	x1 = 0.4088	x1 = 0.505	x1 = 0.5955	x1 = 0.7045	x1 = 0.8231	x1 = 0.9377	x1 = 1
293.15 K	17.5 ± 1.8	31.5 ± 3.2	48.6 ± 4.9	69.3 ± 7	94.1 ± 9.7	115 ± 12	126 ± 13
298.15 K	14.4 ± 1.4	25.1 ± 2.5	36.6 ± 3.7	52 ± 5.2	68.9 ± 7	85.4 ± 8.7	92.5 ± 9.5
303.15 K	12 ± 1.2	20.4 ± 2.1	29.3 ± 2.9	40 ± 4	52.7 ± 5.3	64.4 ± 6.5	69.5 ± 7.1
308.15 K	10.2 ± 1	16.9 ± 1.7	24.1 ± 2.4	32.4 ± 3.3	42.1 ± 4.3	49.9 ± 5	53.8 ± 5.4
313.15 K	8.69 ± 0.87	14.3 ± 1.4	19.8 ± 2	26.4 ± 2.7	33.5 ± 3.4	39.5 ± 4	42.5 ± 4.3
318.15 K	7.53 ± 0.76	12.2 ± 1.2	16.9 ± 1.7	22.1 ± 2.2	27.4 ± 2.8	32.2 ± 3.3	34.6 ± 3.5
323.15 K	6.58 ± 0.66	10.5 ± 1.1	14.2 ± 1.4	18.3 ± 1.8	22.4 ± 2.3	26.2 ± 2.7	28.1 ± 2.8
328.15 K	5.8 ± 0.58	9.03 ± 0.91	12 ± 1.2	15.4 ± 1.6	18.8 ± 1.9	21.8 ± 2.2	23.4 ± 2.4
333.15 K	5.15 ± 0.52	7.96 ± 0.8	10.5 ± 1.1	13.3 ± 1.3	16.1 ± 1.6	18.5 ± 1.9	19.8 ± 2
338.15 K	4.62 ± 0.46	7.12 ± 0.72	9.24 ± 0.93	11.5 ± 1.2	13.8 ± 1.4	15.9 ± 1.6	16.9 ± 1.7
343.15 K	4.16 ± 0.42	6.33 ± 0.64	8.11 ± 0.82	10 ± 1	11.9 ± 1.2	13.6 ± 1.4	14.5 ± 1.5
348.15 K	3.96 ± 0.4	5.89 ± 0.59	7.4 ± 0.75	9.06 ± 0.91	10.7 ± 1.1	12.3 ± 1.2	13.1 ± 1.3
